Laboratory results reported in US7332489B2, “Methods and compositions of novel triazine compounds” (Reddy US Therapeutics, Inc., priority 2003, dated 2008).
Read-outs that look alike come from different tables or passages of the source.

Tested on: TNF-α induced IL-6
Assay: TNF-α-induced IL-6 production determined by IL-6 ELISA
Type: cell-based
Settings: Homo sapiens, 24 h, class = % of control IL6 production
Experimental: Human aortic endothelial cells (HAEC, Clonetics) were cultured according to manufacturer in growth medium (Clonetics): basal medium containing human epidermal growth factor, hydrocortisone, vascular endothelial growth factor, heparin binding growth factor-B, long R3-insulin-like growth factor-1, ascorbic acid, gentamicin/amphotericin and 5% FBS. These cell were allowed to reach at least 90% confluency before subjected to experimental treatments. […] Tumor necrosis factor α was from R&D Systems.
All treatments, compound-added and controls were carried out in serum free media containing 0.2% albumin. Media from all conditions were collected and used for IL-6 ELISA.
IL-6 ELISA was carried out using human IL-6 DuoSet ELISA development kit as described by manufacturer (R&D Systems). Mouse anti-human Il-6 was used as the capture antibody (2 ug/ml) and biotinylated goat anti-human IL-6 (200 ng/ml) was used as the detection antibody. Culture media were incubated with capture antibody (in 96 well) for 2 h at room temperature. Wells were washed three times with wash buffer (0.05% tween-20 in phosphate buffered saline (PBS) pH 7.4) followed by incubation with detection antibody for 2 h at room temperature. Following three washes wells were incubated with Streptavidin-HRP for 20 min. Color development was read at 450 nm in a Microplate reader.

[1] = Table 5, first part, read-out: Inhibition of TNF-induced IL6 production
[2] = Table 5, second part, column 1, read-out: Inhibition of TNF-induced IL6, production

CCN1CCCC1CNc1nc(Nc2ccc(OC)c(F)c2)nc(N2CCCC2)n1 (centres unmarked) [Compound 57, N^2-[(1-ethyl-2-pyrrolidinyl)methyl]-N^4-(3-fluoro-4-methoxyphenyl)-6-(1-pyrrolidinyl)-1,3,5-triazine-2,4-diamine]
activity at 10 µM [1]: 0 to 25%
activity at 10 µM [2]: 25 to 50%

CCN1CCCC1CNc1nc(Nc2ccc(OC)c(F)c2)nc(N2CCCCCC2)n1 (centres unmarked) [Compound 58, N^2-[(1-ethyl-2-pyrrolidinyl)methyl]-N^4-(3-fluoro-4-methoxyphenyl)-N^6-hexahydro-1H-azepin-1-yl-1,3,5-triazine-2,4-diamine]
activity at 10 µM [1]: 0 to 25%
activity at 10 µM [2]: 25 to 50%

CCN1CCCC1CNc1nc(Nc2ccc(OC)c(F)c2)nc(NC2CCC(C)CC2)n1 (centres unmarked) [Compound 60, N^2-[(1-ethyl-2-pyrrolidinyl)methyl]-N^4-(3-fluoro-4-methoxyphenyl)-N^6-(4-methylcyclohexyl)-1,3,5-triazine-2,4,6-triamine]
activity at 10 µM [1]: 0 to 25%

CCN1CCCC1CNc1nc(Nc2ccc(OC)c(F)c2)nc(N2CCN(C)CC2)n1 (centres unmarked) [Compound 62, N^2-[(1-ethyl-2-pyrrolidinyl)methyl]-N^4-(3-fluoro-4-methoxyphenyl)-6-(4-methyl-1-piperazinyl)-1,3,5-triazine-2,4-diamine]
activity at 10 µM [2]: 25 to 50%

CCN1CCCC1CNc1nc(Nc2ccc(OC)c(F)c2)nc(N2CCN(C(C)=O)CC2)n1 (centres unmarked) [Compound 63, 6-(4-acetyl-1-piperazinyl)-N^2-[(1-ethyl-2-pyrrolidinyl)methyl]-N^4-(3-fluoro-4-methoxyphenyl)-1,3,5-triazine-2,4-diamine]
activity at 10 µM [1]: 25 to 50%

CCOC(=O)N1CCN(c2nc(NCC3CCCN3CC)nc(Nc3ccc(OC)c(F)c3)n2)CC1 (centres unmarked) [Compound 64, Ethyl 4-{4-{[(1-ethyl-2-pyrrolidinyl)methyl]amino}-N^6-[(3-fluoro-4-methoxyphenyl)amino]-1,3,5-triazin-2-yl}-1-piperazinecarboxylate]
activity at 10 µM [1]: 25 to 50%

CCN1CCCC1CNc1nc(NCC2CCCCC2)nc(Nc2ccc(OC)c(F)c2)n1 (centres unmarked) [Compound 65, N^2-(cyclohexylmethyl)-N^4-[(1-ethyl-2-pyrrolidinyl)methyl]-N^6-(3-fluoro-4-methoxyphenyl)-1,3,5-triazine-2,4,6-triamine]
activity at 10 µM [1]: 0 to 25%
activity at 10 µM [2]: 25 to 50%

CCN1CCCC1CNc1nc(NCc2ccco2)nc(Nc2ccc(OC)c(F)c2)n1 (centres unmarked) [Compound 66, N^2-[(1-ethyl-2-pyrrolidinyl)methyl]-N^4-(3-fluoro-4-methoxyphenyl)-N^6-(2-furylmethyl)-1,3,5-triazine-2,4,6-triamine]
activity at 10 µM [1]: 0 to 25%
activity at 10 µM [2]: 0 to 25%

CCN1CCCC1CNc1nc(NCC(F)(F)F)nc(Nc2ccc(OC)c(F)c2)n1 (centres unmarked) [Compound 67, N^2-[(1-ethyl-2-pyrrolidinyl)methyl]-N^4-(3-fluoro-4-methoxyphenyl)-N^6-(2,2,2-trifluoroethyl)-1,3,5-triazine-2,4,6-triamine]
activity at 10 µM [2]: 25 to 50%

CCN1CCCC1CNc1nc(NCCN(C)C)nc(Nc2ccc(OC)c(F)c2)n1 (centres unmarked) [Compound 68, N^2-[2-(dimethylamino)ethyl]-N^4-[(1-ethyl-2-pyrrolidinyl)methyl]-N^6-(3-fluoro-4-methoxyphenyl)-1,3,5-triazine-2,4,6-triamine]
activity at 10 µM [1]: 0 to 25%
activity at 10 µM [2]: 25 to 50%

CCN1CCCC1CNc1nc(Nc2ccc(OC)c(F)c2)nc(N2CCN(CC(=O)N3CCCC3)CC2)n1 (centres unmarked) [Compound 69, N^2-[(1-ethyl-2-pyrrolidinyl)methyl]-N^4-(3-fluoro-4-methoxyphenyl)-N^6-{4-[2-oxo-2-(1-pyrrolidinyl)ethyl]-1-piperazinyl}-1,3,5-triazine-2,4-diamine]
activity at 10 µM [1]: 0 to 25%
activity at 10 µM [2]: 0 to 25%

CCN1CCCC1CNc1nc(NCC2CCCN2CC)nc(Nc2ccc(OC)c(F)c2)n1 (centres unmarked) [Compound 70, N^2,N^4-bis[(1-ethyl-2-pyrrolidinyl)methyl]-N^6-(3-fluoro-4-methoxyphenyl)-1,3,5-triazine-2,4,6-triamine]
activity at 10 µM [1]: 0 to 25%
activity at 10 µM [2]: 25 to 50%

CCN1CCCC1CNc1nc(NCCN2CCCCC2)nc(Nc2ccc(OC)c(F)c2)n1 (centres unmarked) [Compound 71, N^2-[(1-ethyl-2-pyrrolidinyl)methyl]-N^4-(3-fluoro-4-methoxyphenyl)-N^6-[2-(1-piperidinyl)ethyl]-1,3,5-triazine-2,4,6-triamine]
activity at 10 µM [1]: 0 to 25%
activity at 10 µM [2]: 25 to 50%

CCN1CCCC1CNc1nc(Nc2ccc(OC)c(F)c2)nc(N2CCN(Cc3ccc4c(c3)OCO4)CC2)n1 (centres unmarked) [Compound 72, N^6-[4-(1,3-benzodioxol-5-ylmethyl)-1-piperazinyl]-N^2-[(1-ethyl-2-pyrrolidinyl)methyl]-N^4-(3-fluoro-4-methoxyphenyl)-1,3,5-triazine-2,4-diamine]
activity at 10 µM [1]: 0 to 25%
activity at 10 µM [2]: 25 to 50%

CCN1CCCC1CNc1nc(Nc2ccc(OC)c(F)c2)nc(N2CCN(c3ccccn3)CC2)n1 (centres unmarked) [Compound 73, N^2-[(1-ethyl-2-pyrrolidinyl)methyl]-N^4-(3-fluoro-4-methoxyphenyl)-N^6-[4-(2-pyridinyl)-1-piperazinyl]-1,3,5-triazine-2,4-diamine]
activity at 10 µM [1]: 0 to 25%
activity at 10 µM [2]: 0 to 25%

CCN1CCCC1CNc1nc(NCCCN2CCCC2=O)nc(Nc2ccc(OC)c(F)c2)n1 (centres unmarked) [Compound 74, 1-[3-({4-{[(1-ethyl-2-pyrrolidinyl)methyl]amino}-6-[(3-fluoro-4-methoxyphenyl)amino]-1,3,5-triazin-2-yl}amino)propyl]-2-pyrrolidinone]
activity at 10 µM [2]: 25 to 50%

CCN1CCCC1CNc1nc(NCCCn2ccnc2)nc(Nc2ccc(OC)c(F)c2)n1 (centres unmarked) [Compound 75, N^2-[(1-ethyl-2-pyrrolidinyl)methyl]-N^4-(3-fluoro-4-methoxyphenyl)-N^6-[3-(1H-imidazol-1-yl)propyl]-1,3,5-triazine-2,4,6-triamine]
activity at 10 µM [1]: 25 to 50%
activity at 10 µM [2]: 25 to 50%

CCNc1nc(Nc2ccc(OC)c(F)c2)nc(NC2CCCCCC2)n1 [Compound 76, N^2-cycloheptyl-N^4-ethyl-N^6-(3-fluoro-4-methoxyphenyl)-1,3,5-triazine-2,4,6-triamine]
activity at 10 µM [1]: 0 to 25%

COc1ccc(Nc2nc(NC3CCCCCC3)nc(NC(C)(C)C)n2)cc1F [Compound 77, N^2-(tert-butyl)-N^4-cycloheptyl-N^6-(3-fluoro-4-methoxyphenyl)-1,3,5-triazine-2,4,6-triamine]
activity at 10 µM [1]: 0 to 25%

COc1ccc(Nc2nc(NCc3ccccc3)nc(NC3CCCCCC3)n2)cc1F [Compound 78, N^2-benzyl-N^4-cycloheptyl-N^6-(3-fluoro-4-methoxyphenyl)-1,3,5-triazine-2,4,6-triamine]
activity at 10 µM [1]: 25 to 50%

COc1ccc(Nc2nc(NC3CCCCCC3)nc(N3CCCC3)n2)cc1F [Compound 82, N^2-cycloheptyl-N^4-(3-fluoro-4-methoxyphenyl)-6-(1-pyrrolidinyl)-1,3,5-triazine-2,4-diamine]
activity at 10 µM [1]: 25 to 50%

COc1ccc(Nc2nc(NC3CCCCCC3)nc(N3CCCCCC3)n2)cc1F [Compound 83, N^2-cycloheptyl-N^4-(3-fluoro-4-methoxyphenyl)-6-hexahydro-1H-azepin-1-yl-1,3,5-triazine-2,4-diamine]
activity at 10 µM [1]: 0 to 25%

COc1ccc(Nc2nc(NC3CCCCCC3)nc(N3CCCC4CCCCC43)n2)cc1F (centres unmarked) [Compound 84, N^2-cycloheptyl-N^4-(3-fluoro-4-methoxyphenyl)-6-octahydro-1(2H)-quinolinyl-1,3,5-triazine-2,4-diamine]
activity at 10 µM [1]: 25 to 50%

COc1ccc(Nc2nc(NC3CCCCCC3)nc(NC3CCC(C)CC3)n2)cc1F (centres unmarked) [Compound 85, N^2-cycloheptyl-N^4-(3-fluoro-4-methoxyphenyl)-N^6-(4-methylcyclohexyl)-1,3,5-triazine-2,4,6-triamine]
activity at 10 µM [1]: 25 to 50%

COC[C@@H]1CCCN1c1nc(Nc2ccc(OC)c(F)c2)nc(NC2CCCCCC2)n1 [Compound 86, N^2-cycloheptyl-N^4-(3-fluoro-4-methoxyphenyl)-6-[(2S)-2-(methoxymethyl)-1-pyrrolidinyl]-1,3,5-triazine-2,4-diamine]
activity at 10 µM [1]: 0 to 25%

COc1ccc(Nc2nc(NC3CCCCCC3)nc(N3CCN(C)CC3)n2)cc1F [Compound 87, N^2-cycloheptyl-N^4-(3-fluoro-4-methoxyphenyl)-6-(4-methyl-1-piperazinyl)-1,3,5-triazine-2,4-diamine]
activity at 10 µM [2]: 0 to 25%

COc1ccc(Nc2nc(NC3CCCCCC3)nc(N3CCN(C(C)=O)CC3)n2)cc1F [Compound 88, 6-(4-acetyl-1-piperazinyl)-N^2-cycloheptyl-N^4-(3-fluoro-4-methoxyphenyl)-1,3,5-triazine-2,4-diamine]
activity at 10 µM [1]: 0 to 25%

COc1ccc(Nc2nc(NCc3ccco3)nc(NC3CCCCCC3)n2)cc1F [Compound 91, N^2-cycloheptyl-N^4-(3-fluoro-4-methoxyphenyl)-N^6-(2-furanylmethyl)-1,3,5-triazine-2,4,6-triamine]
activity at 10 µM [1]: 25 to 50%

COc1ccc(Nc2nc(NC3CCCCCC3)nc(N3CCN(CC(=O)N4CCCC4)CC3)n2)cc1F [Compound 94, N^2-cycloheptyl-N^4-(3-fluoro-4-methoxyphenyl)-6-{4-[2-oxo-(1-pyrrolidinyl)ethyl]-1-piperazinyl}-1,3,5-triazine-2,4-diamine]
activity at 10 µM [1]: 25 to 50%
activity at 10 µM [2]: 0 to 25%
